Data set [1] concerns HepG2. The data set is described as follows: Inhibition of TNF-alpha-induced NF-kappaB transactivation expressed in human HepG2 cells at 0.1 to 20 uM preincubated 1 hr before TNFalpha challenge measured after 1 hr by luciferase reporter gene assay. Format: cell-based. On the technique in general: In a reporter assay the amount or activity of a reporter protein is the signal.

Data set [2] has as its system HepG2. The data set is described as follows: Cytotoxicity against human HepG2 cells up to 20 uM after 24 hrs by MTS assay. Type of data set: cell-based. Particulars: hepg2, 24 h. (Tetrazolium dyes change colour on reduction, which living cells bring about.)
Data set [3] deals with HepG2. As to the kind of experiment: Inhibition of TNF-alpha-induced NF-kappaB transactivation expressed in human HepG2 cells at 20 uM preincubated 1 hr before TNFalpha challenge measured after 1 hr by luciferase reporter gene assay. Format: cell-based.
Data set [4] deals with HepG2. The data set is described as follows: Inhibition of TNF-alpha-induced COX2 mRNA expression in human HepG2 cells expressing NF-kappaB preincubated 1 hr before TNFalpha challenge measured after 6 hrs by RT-PCR analysis. Format: functional, cell-based.
The test system of data set [5] is HepG2. As to the kind of experiment: Inhibition of TNF-alpha-induced iNOS mRNA expression in human HepG2 cells expressing NF-kappaB preincubated 1 hr before TNFalpha challenge measured after 6 hrs by RT-PCR analysis. Format: functional, cell-based.
In data set [6] the test system is HepG2. The data set is described as follows: Inhibition of TNF-alpha-induced NF-kappaB transactivation expressed in human HepG2 cells at 10 uM preincubated 1 hr before TNFalpha challenge measured after 1 hr by luciferase reporter gene assay. Format: cell-based.

SMILES strings stand for the structures. Active and inactive are the calls of the source. No cut-off for these calls is given here.

For `COc1cc(/C=C/C(=O)O[C@H](Cc2ccc(O)c(O)c2)C(=O)O)ccc1O`, in the data set on HepG2 [1], the inhibition result is “Active”. The Activity result with HepG2 [2] is given as “Non-toxic”.
Take `COC(=O)[C@@H](Cc1ccc(O)c(O)c1)OC(=O)/C=C/c1ccc(OC)c(O)c1`: the inhibition in the data set with HepG2 [3] is 45.4%; with HepG2 [4], “Dose-dependent effect”; with HepG2 [5], “Dose-dependent effect”; in the data set on HepG2 [6], 28.7%. Also, the Activity entry with HepG2 [2] is “Non-toxic”.
The compound `O=C(/C=C/c1ccc(O)c(O)c1)O[C@H](Cc1ccc(O)c(O)c1)C(=O)O` [ROSMARINIC ACID] came in with an inhibition in the data set with HepG2 [3] of 22.7%. Also, the Activity result with HepG2 [2] is “Non-toxic”.
Turning to `COC(=O)[C@@H](Cc1ccc(O)c(O)c1)OC(=O)/C=C/c1ccc(O)c(O)c1` [METHYL ROSMARINATE], the inhibition is 44.3% in the data set on HepG2 [3], “Dose-dependent effect” in the data set on HepG2 [4] and “Dose-dependent effect” in the data set on HepG2 [5]. Moreover, the Activity entry with HepG2 [2] is “Non-toxic”.
In the case of `O=C(OCc1ccccc1)c1ccc(O)c(O[C@@H]2O[C@H](CO)[C@@H](O)[C@H](O)[C@H]2O)c1`, the inhibition entry in the data set with HepG2 [1] was “Active”. In addition, the Activity entry with HepG2 [2] is on record as “Non-toxic”.
Consider `CCOC(=O)[C@@H](Cc1ccc(O)c(O)c1)OC(=O)/C=C/c1ccc(O)c(O)c1` [ETHYL ROSMARINATE], for which the inhibition is 57% with HepG2 [3], “Dose-dependent effect” in the data set on HepG2 [4] and “Dose-dependent effect” in the data set with HepG2 [5]. For the same compound, the Activity entry with HepG2 [2] is “Non-toxic”.

The inhibition is the drop in the measured response relative to a control, in per cent.

The values above are taken from ChEMBL document CHEMBL1777696, “Anti-inflammatory activity of constituents from Glechoma hederacea var. longituba” (Bioorg Med Chem Lett, 2011).
